According to paper PMC10563230, “Unveiling poly(rC)-binding protein 2 as the target protein for curcusone C against prostate cancer: mechanism validation through click chemistry-activity based proteomics profiling approach” (BMC Cancer, 2023):

What was measured:
[1] = system: human prostate carcinoma PC-3 cells; test: CCK-8 cytotoxic activity assay, PC-3; format: cell-based; details: CCK-8, 48 h
Description: (§1) Human prostate carcinoma PC-3 cells and human proximal tubular HK-2 cells purchased from Chinese National Collection of Authenticated Cell Cultures were cultured in RPMI 1640 medium containing FBS (10%, Gibco, CA, USA) and Penicillin-Streptomycin (1%, Gibco, CA, USA). The cells were cultured at a concentration of 5% CO2 and a temperature of 37 ℃, and the medium was changed every two days.
(§2) CCK-8 assay was used to evaluate the proliferation and cytotoxicity of Curcusone C and its derivatives. Cells of 100 µL with a concentration of 5000 cells/mL to 8000 cells/mL were inoculated in 96-well plates for culturing 24 h, and the blank well was added with equal volume medium. After cell adhesion, 10 µL Curcusone C solution or its derivatives were added to each well of the experimental groups except the blank well to the final concentration of drug was 1 mM, […] respectively, and 10 µL DMSO (drug solvent) was added to the control well. The liquid was discarded 48 h later, and 100 µL medium and 10 µL CCK-8 reagent (Beyotime, Shanghai, China) were added to each well. After incubation for 0.5 to 1 h, the absorbance valued at 450 nm was measured and the cell inhibition rate or survival rate was calculated. Cell inhibition rate= […].

[2] = system: human proximal tubular HK-2 cells; test: CCK-8 cytotoxic activity assay, HK-2 normal cells; format: cell-based; details: HK-2, 48 h, CCK-8, 48 h
Description: as §1, §2

[3] = system: PC-3 subcutaneously transplanted tumor; test: PC-3 subcutaneously transplanted tumor model in nude mice; format: in vivo, Balb/C nude mice; details: for tumor weight: last day of administration, control group 2885.5 ± 432.0 mg
Description: (§3) PC-3 cells in logarithmic growth phase were collected and the total number of cells required was calculated. Cells were re-suspended in a suitable volume of PBS and added to matrigel (PBS: matrigel = 1:1(v/v)) at a concentration of 5 × 10^6 cells/mL for subcutaneous inoculation on the right side of Balb/C nude mice. On day 0, 0.1 mL 5 × 10^6 cells/mL cell suspension (PBS: matrigel = 1:1(v/v)) was subcutaneously inoculated on the right neck and back of each nude mouse except the mice of normal group, to establish PC-3 subcutaneously transplanted tumor model. On day 8 after cell inoculation, the tumor grew to an average volume of 140.3 mm^3. The groups were randomly divided into normal group (Normal), control group (Control), methotrexate group (MTX 4.8 mg/kg), low dose group (C 5 mg/kg), medium dose group (C 10 mg/kg) and high dose group (C 20 mg/kg). Except for 3 mice in the normal group, 6 mice in the other groups were administered twice a week via tail vein (BIW). After 2 weeks of dosing, the dose was changed to once a day (QD). After 2 days of QD administration, tail vein injection was changed to intraperitoneal administration, and QD administration was continued for 5 days. Pharmacodynamic activity was evaluated based on tumor inhibition rate (TGITV) and tolerance was evaluated based on animal weight change and death. At the end of the experiment, all the animals were bled under isoflurane anesthesia and the serum was extracted. The heart, liver, spleen, lung and kidney of each nude mouse were collected and fixed in 4% paraformaldehyde or quick-frozen in liquid nitrogen and stored at -80 ℃ for tissue protein extraction.
(§4) Tissue samples were embedded, sectioned, dewaxed, stained, dehydrated and transparent, and sealed with neutral gum. After drying in a ventilated place, observing and recording under a microscope, the sections were stored at room temperature.
Mouse tumor tissues were fixed with 4% PFA and washed with PBS, and TUNEL staining was performed with TUNEL apoptosis detection kit according to manufacturer’s instructions. Cell nucleus were stained with DAPI, slides were rinsed and imaged with fluorescence microscopy, and finally apoptosis was analyzed with image analyzer.

[4] = Tolerance and organ toxicity in tumor-bearing nude mice (body weight, HE staining); format: in vivo
Description: as §3, §4

PCBP2 [5] = test: Western blot of PCBP2 in PC-3 cells; format: cell-based, human; details: different concentrations
Description: (§5) The culture medium containing PC-3 cells was discarded, lysis buffer was added, and the cells were collected with a scraper. The sample is then transferred to a centrifuge tube and the cells are fully lysed. Centrifuge the tube at 12,000 g and 4 ℃ for 10 min. After taking the supernatant, mix with the protein: protein loading buffer (v/v) = 5:1 ratio, and boil at 95 ℃ for 10 min to fully denaturate the protein. BCA protein concentration assay kit (Beyotime, China) was used to quantify the protein of experimental samples. Equal amounts of protein (30 µg) were loaded onto 7.5-12.5% SDS-PAGE gel. After adding the sample, the target protein was separated at 140 V constant pressure and was transferred under the condition of 250 mA constant current and the highest voltage. The transferred PVDF membrane (Thermo Fisher Scientific, MA, USA) was sealed in 5% skim milk (BIOFRox, Germany) for 2 h. The membrane was incubated in the antibody diluent of the corresponding protein at 4 ℃ overnight in a shaker and washed with TBST (Gibco, USA) for three times. Then it was placed in secondary antibody diluent for incubating 1.5 h at 4 ℃ in a shaker and washed again for three times. Finally, appropriate amount of ECL luminescent solution was taken to infiltrate PVDF membrane for development, and the strip was exposed and recorded.

[6] = system: Bax, Bcl-2, caspase-3 and PARP proteins in PC-3 cells; test: Western blot of mitochondrial apoptosis pathway proteins in PC-3 cells; format: cell-based, human; details: increasing concentration
Description: as §5

PCBP2 protein = PCBP2 protein (Homo sapiens, UniProt Q15366); test: SPR binding to immobilized PCBP2 (CM5 chip); details: analyte 31.25–500 µM
Description: The PCBP2 protein was first immobilized on the CM5 microarray using […], and then the analyte was run using a multi-cycle method. Briefly, small molecules were diluted to different concentrations with Running Buffer, and injected into channel Fc1-Fc2 at a flow rate of 30 µl/min. The association period was 60 s, and then dissociated for 90 s. The association and dissociation processed in the Running Buffer.

PCBP2 [7] = test: DARTS (pronase digestion of PCBP2 in PC-3 protein extract); format: binding, human; details: 100 µM
Description: PC-3 cells protein was extracted, and the protein concentration was adjusted to 5 mg/mL and was packed into 99 µL/tube. Then, 10 mM and 5 mM Curcusone C solution of 1 µL was added to protein mixture of 99 µL and gently shaken at room temperature for 1 h. After the compounds were completely incubated, the samples were divided into one part every 20 µL, and 2 µL pronase solution with a certain concentration was added. The control group was added with 2 µL TNC buffer and incubated at room temperature for 30 min to ensure the same digestion time in each group. Digestion was terminated with 20X protease inhibitor complex and incubated on ice for 10 min. Finally, 6 µL 5X protein loading buffer was added to each sample and boiled at 100 ℃ for 10 min to fully denaturate the protein. The samples were centrifuged at 1100 g and 4 ℃ for 1 min and were performed western blot.

[8] = system: PCBP2, FHL3, TGF-β1, phosphorylated Smad2 and phosphorylated Smad7; test: Immunohistochemistry of tumor tissues of nude mice; format: in vivo, Balb/C nude mice
Description: Paraffin sections underwent successively dewaxing to water, antigen repair, blocking of endogenous peroxidase, serum blocking, primary antibody incubation, secondary antibody reaction, DAB color development, counterstaining of nuclei, dehydration and sealing, image acquisition and analysis, and microscopic examination.

PCBP2 protein, sequence (Q15366 whole entry): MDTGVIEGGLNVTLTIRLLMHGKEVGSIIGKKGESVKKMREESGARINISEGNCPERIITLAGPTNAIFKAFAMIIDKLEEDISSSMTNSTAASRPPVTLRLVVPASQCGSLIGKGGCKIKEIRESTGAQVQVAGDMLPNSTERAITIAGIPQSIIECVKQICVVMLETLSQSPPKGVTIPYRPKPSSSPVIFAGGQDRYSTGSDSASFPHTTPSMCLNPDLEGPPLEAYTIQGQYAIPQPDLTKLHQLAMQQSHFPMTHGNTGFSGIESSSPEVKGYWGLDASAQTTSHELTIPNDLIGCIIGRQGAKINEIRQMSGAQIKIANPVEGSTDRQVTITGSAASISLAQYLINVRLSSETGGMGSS

C=C(COC(C)=O)[C@H]1CCC(O)(CCl)C2C3=C(C[C@@](C)(O)C3=O)C(=O)C(C)=CC21 (stereo partly shown) [Derivative C-8]
IC50 ([1]; PC-3, 48 h): 9.49 ± 0.17 µM

C=C(COC(=O)CC(=O)OC)[C@H]1CCC(O)(CCl)C2C3=C(C[C@@](C)(O)C3=O)C(=O)C(C)=CC21 (stereo partly shown) [Derivative C-9]
IC50 ([1]; PC-3, 48 h): 5.97 ± 1.16 µM

CN(Cc1cnc2nc(N)nc(N)c2n1)c1ccc(C(=O)N[C@@H](CCC(=O)O)C(=O)O)cc1 [Methotrexate, reference compound]
IC50 [2]: ~3.21 µM
HE staining of tumor tissue ([3]; 4.8 mg/kg): nuclear pyknosis and lysis
TUNEL apoptotic signal in tumor tissue ([3]; 4.8 mg/kg): most obvious apoptotic signal
tumor inhibition rate ([3]; 4.8 mg/kg): 48%
tumor weight ([3]; 4.8 mg/kg): 1503.4 ± 243.0 mg
HE staining of kidney (glomerulus in the renal cortex) ([4]; 4.8 mg/kg): severe pyknosis
HE staining of lung tissue ([4]; 4.8 mg/kg): significant pulmonary interstitial thickening and pneumonic pathological manifestations
IC50 ([1]; PC-3, 48 h): 0.89 ± 0.22 µM

C=C(COc1ccc([N+](=O)[O-])cc1)[C@@H](CCC(=O)COc1ccc([N+](=O)[O-])cc1)c1cc2c(c(=O)c(C)c1)C[C@@](C)(O)C2=O [Derivative C-12]
IC50 [1]: > 20 µM

C=C(COC(=O)/C=C/C=C/C)[C@H]1CCC(O)(CCl)C2C3=C(C[C@@](C)(O)C3=O)C(=O)C(C)=CC21 (stereo partly shown) [Derivative C-6]
IC50 ([1]; PC-3, 48 h): 1.81 ± 0.18 µM

C=C(C)[C@@H](CCC(=O)COC(C)=O)c1cc2c(c(=O)c(C)c1)C[C@@](C)(O)C2=O [Derivative C-10]
IC50 ([1]; PC-3, 48 h): > 20 µM

C=C(CCl)[C@H]1CCC(O)(CCl)C2C3=C(C[C@@](C)(O)C3=O)C(=O)C(C)=CC21 (stereo partly shown) [Derivative C-13]
IC50 [1]: 2.96 ± 0.37 µM

C#CCCCC(=O)O[C@]1(C)CC2=C(C1=O)C1C(=C)CC[C@H](C(=C)C)C1C=C(C)C2=O (stereo partly shown) [Positive probes]
IC50 ([1]; PC-3, 48 h): 7.34 ± 0.2 µM

C=C(C)[C@H]1CCC(O)(CCl)C2C3=C(C[C@@](C)(O)C3=O)C(=O)C(C)=CC21 (stereo partly shown) [Derivative C-2]
IC50 ([1]; PC-3, 48 h): 6.4 ± 0.38 µM

C=C1CC[C@H](C(=C)C)C2C=C(C)C(=O)C3=C(C(=O)[C@](C)(Cl)C3)C12 (stereo partly shown) [Derivative C-1]
IC50 ([1]; PC-3, 48 h): 3.74 ± 0.4 µM

C=C(C)[C@@H](CCC(=O)CN(CC)CC)c1cc2c(c(=O)c(C)c1)C[C@@](C)(O)C2=O [Derivative C-11]
IC50 ([1]; PC-3, 48 h): > 20 µM

C=C1CC[C@H](C(=C)C)[C@H]2C=C(C)C(=O)C3=C(C(=O)[C@](C)(O)C3)[C@H]12 [Curcusone C]
IC50 [2]: > 20 µM
TUNEL apoptotic signal in tumor tissue ([3]; 5 mg/kg): no apoptotic cell signal
tumor inhibition rate ([3]; 5 mg/kg): 18%
tumor weight ([3]; 5 mg/kg): 2356.7 ± 445.7 mg
TUNEL apoptotic signal in tumor tissue ([3]; 10 mg/kg): red marker signal
tumor inhibition rate ([3]; 10 mg/kg): 33%
tumor weight ([3]; 10 mg/kg): 1925.6 ± 242.1 mg
HE staining of tumor tissue ([3]; 20 mg/kg): nuclear pyknosis and lysis
TUNEL apoptotic signal in tumor tissue ([3]; 20 mg/kg): most obvious apoptotic signal
tumor inhibition rate ([3]; 20 mg/kg): about 39%
tumor weight ([3]; 20 mg/kg): 1759.6 ± 448.7 mg
HE staining of lung tissue ([4]; 20 mg/kg): no interstitial thickening of lung tissue
body weight of nude mice ([4]; 20 mg/kg): weight loss due to intolerance at the initial stage of drug administration
HE staining of renal tissue ([4]; after administration of Curcusone C): no obvious abnormality
HE staining of heart, liver, spleen, lung and kidney ([4]; compared with the normal group): no significant changes
relative content of PCBP2 in PC-3 cells (PCBP2 [5]): decreased with the increase of drug concentration
level of Bcl-2 in PC-3 cells [6]: decreased gradually
relative expression levels of Bax, cleaved caspase-3 and cleaved PARP in PC-3 cells [6]: increased gradually
Kd (PCBP2 protein): 3.15 mM
amount of enzymolysis by pronase of PCBP2 (PCBP2 [7]): lower than that of control group
changes of TGF-β1, P-Smad2 and P-smad7 proteins in tumor tissues ([8]; IHC): downward trend
content of FHL3 protein in tumor tissues ([8]; IHC, 20 mg/kg): higher than that in Control group
expression of PCBP2 protein in tumor tissues ([8]; IHC, 5, 10, 20 mg/kg): decreased with the increase of drug concentration
IC50 ([1]; PC-3, 48 h): ~3.24 µM

C=C(CO)[C@H]1CCC(O)(CCl)C2C3=C(C[C@@](C)(O)C3=O)C(=O)C(C)=CC21 (stereo partly shown) [Derivative C-7]
IC50 ([1]; PC-3, 48 h): 16.3 ± 3.25 µM

C=C(C=O)[C@H]1CCC(O)(CCl)C2C3=C(C[C@@](C)(O)C3=O)C(=O)C(C)=CC21 (stereo partly shown) [Derivative C-4]
IC50 ([1]; PC-3, 48 h): 2.35 ± 0.37 µM

C=C(C)[C@H]1CCC(O)(CI)C2C3=C(C[C@@](C)(O)C3=O)C(=O)C(C)=CC21 (stereo partly shown) [Derivative C-3]
IC50 ([1]; PC-3, 48 h): 10.3 ± 0.58 µM

C=C(C)C(=O)OCC(=C)[C@H]1CCC(O)(CCl)C2C3=C(C[C@@](C)(O)C3=O)C(=O)C(C)=CC21 (stereo partly shown) [Derivative C-5]
IC50 ([1]; PC-3, 48 h): 2.05 ± 0.96 µM
